Measured values as given in patent publication US9079901B2, “Fused heterocyclic compounds as ion channel modulators” (Gilead Sciences, Inc., priority 2010, dated 2015).

Target: wild-type human cardiac sodium channel, hNav1.5 (late sodium current) in HEK293 cells (Homo sapiens, UniProt Q14524)
Test: Late INa screening assay (automated whole-cell patch clamp, PatchXpress)
Assay type: cell-based
Details: late INa generated with 10 μM Tefluthrin (or 50 nM ATX II), HEK293 hNav1.5; for inhibition at 1 µM: HEK293, compound at 1 μM, read-out: Late INa 1 μM (percent block of late INa)
Method: The late sodium current (Late INa) and peak sodium current (Peak INa) assays are performed on an automated electrophysiology platform, PatchXpress 7000A (MDS Analytical Technologies, Sunnyvale, Calif.), which uses the whole cell patch clamp technique to measure currents through the cell membrane of up to 16 cells at a time. The assay uses an HEK293 (human embryonic kidney) cell line heterologously expressing the wild-type human cardiac sodium channel, hNav1.5, purchased from Millipore (Billerica, Mass.). No beta subunits were coexpressed with the Na channel alpha subunit. Cells are maintained with standard tissue culture procedures and stable channel expression is maintained with 400 μg/ml Geneticin in the culture medium. Cells isolated for use on PatchXpress are incubated for 5 minutes in Versene 1× and then for 2 minutes in 0.0125% Trypsin-EDTA (both at 37° C.) to ensure that 80-90% of the cells are single and not part of a cell cluster. Experiments are carried out at 24-27° C.
For both the Late INa and Peak INa assays, series resistance compensation is set to 50% and whole-cell compensation is performed automatically. Currents are low-pass filtered at 10 kHz and digitized at 31.25 kHz. Currents through open sodium channels are automatically recorded and stored in the DataXpress2 database (MDS Analytical Technologies, Sunnyvale, Calif.). Analysis is performed using DataXpress2 analysis software and data are compiled in Excel.
Compound stocks are routinely made in glass vials to 10 mM in dimethyl sulfoxide (DMSO). In some cases, when compounds are not soluble in DMSO, they are made in 100% ethanol. Stocks are sonicated as necessary. The extracellular solution for screening Late INa is composed of: 140 mM NaCl, 4 mM KCl, 1.8 mM CaCl2, 0.75 mM MgCl2, and 5 mM HEPES with pH adjusted to 7.4 using NaOH. The extracellular solution for screening Peak INa is composed of: 20 mM NaCl, 120 mM N-methyl-D glucamine, 4 mM KCl, 1.8 mM CaCl2, 0.75 mM MgCl2, and 5 mM HEPES with pH adjusted to 7.4 using HCl. The intracellular solution used to perfuse the inside of the cells for both the Late INa and Peak INa assays contains: 120 mM CsF, 20 mM CsCl, 5 mM EGTA, 5 mM HEPES and pH adjusted to 7.4 with CsOH. Compounds are diluted in extracellular solution to 10 μM in glass vials and then transferred to glass well plates before robotic addition to the cells. The 0Na extracellular solution used at the end of each experiment for the Late INa and Peak INa assays to measure baseline current contains: 140 mM N-methyl-D-glucamine; 4 mM KCl; 1.8 mM CaCl2; 0.75 mM MgCl2; 5 mM HEPES and pH was adjusted to 7.4 with HCl.
For the Late INa assay, sodium channels are activated every 10 seconds (0.1 Hz) by depolarizing the cell membrane to −20 mV for 250 milliseconds (ms) from a holding potential of −120 mV. In response to a −20 mV voltage step, typical Nav1.5 sodium currents activate rapidly to a peak negative current and then inactivate nearly completely within 3-4 ms.
All compounds are tested to determine their activity in blocking the late sodium current. Late INa current is generated by adding 10 μM Tefluthrin (pyrethroid) to the extracellular solution while recording Na currents. For some experiments, 50 nM ATX II (sea anemone toxin), another late INa activator, was used to generate the late component. Both activators generate late components that are large enough that block of the late component by compounds can be measured easily. For the purposes of the screening, late INa is defined as the mean current between 225 ms and 250 ms after stepping to −20 mV to activate Na channels. After establishing the whole cell recording configuration, late INa activators are added to each well 4 times over a 16-17 minute period so that the late component of the Na current reaches a stable value. Compounds are then added (typically at 10 μM), in the presence of late INa activator, with 3 additions over the course of 7 or 8 minutes. […]

Sequence of wild-type human cardiac sodium channel, hNav1.5 (late sodium current) in HEK293 cells (Q14524 whole entry): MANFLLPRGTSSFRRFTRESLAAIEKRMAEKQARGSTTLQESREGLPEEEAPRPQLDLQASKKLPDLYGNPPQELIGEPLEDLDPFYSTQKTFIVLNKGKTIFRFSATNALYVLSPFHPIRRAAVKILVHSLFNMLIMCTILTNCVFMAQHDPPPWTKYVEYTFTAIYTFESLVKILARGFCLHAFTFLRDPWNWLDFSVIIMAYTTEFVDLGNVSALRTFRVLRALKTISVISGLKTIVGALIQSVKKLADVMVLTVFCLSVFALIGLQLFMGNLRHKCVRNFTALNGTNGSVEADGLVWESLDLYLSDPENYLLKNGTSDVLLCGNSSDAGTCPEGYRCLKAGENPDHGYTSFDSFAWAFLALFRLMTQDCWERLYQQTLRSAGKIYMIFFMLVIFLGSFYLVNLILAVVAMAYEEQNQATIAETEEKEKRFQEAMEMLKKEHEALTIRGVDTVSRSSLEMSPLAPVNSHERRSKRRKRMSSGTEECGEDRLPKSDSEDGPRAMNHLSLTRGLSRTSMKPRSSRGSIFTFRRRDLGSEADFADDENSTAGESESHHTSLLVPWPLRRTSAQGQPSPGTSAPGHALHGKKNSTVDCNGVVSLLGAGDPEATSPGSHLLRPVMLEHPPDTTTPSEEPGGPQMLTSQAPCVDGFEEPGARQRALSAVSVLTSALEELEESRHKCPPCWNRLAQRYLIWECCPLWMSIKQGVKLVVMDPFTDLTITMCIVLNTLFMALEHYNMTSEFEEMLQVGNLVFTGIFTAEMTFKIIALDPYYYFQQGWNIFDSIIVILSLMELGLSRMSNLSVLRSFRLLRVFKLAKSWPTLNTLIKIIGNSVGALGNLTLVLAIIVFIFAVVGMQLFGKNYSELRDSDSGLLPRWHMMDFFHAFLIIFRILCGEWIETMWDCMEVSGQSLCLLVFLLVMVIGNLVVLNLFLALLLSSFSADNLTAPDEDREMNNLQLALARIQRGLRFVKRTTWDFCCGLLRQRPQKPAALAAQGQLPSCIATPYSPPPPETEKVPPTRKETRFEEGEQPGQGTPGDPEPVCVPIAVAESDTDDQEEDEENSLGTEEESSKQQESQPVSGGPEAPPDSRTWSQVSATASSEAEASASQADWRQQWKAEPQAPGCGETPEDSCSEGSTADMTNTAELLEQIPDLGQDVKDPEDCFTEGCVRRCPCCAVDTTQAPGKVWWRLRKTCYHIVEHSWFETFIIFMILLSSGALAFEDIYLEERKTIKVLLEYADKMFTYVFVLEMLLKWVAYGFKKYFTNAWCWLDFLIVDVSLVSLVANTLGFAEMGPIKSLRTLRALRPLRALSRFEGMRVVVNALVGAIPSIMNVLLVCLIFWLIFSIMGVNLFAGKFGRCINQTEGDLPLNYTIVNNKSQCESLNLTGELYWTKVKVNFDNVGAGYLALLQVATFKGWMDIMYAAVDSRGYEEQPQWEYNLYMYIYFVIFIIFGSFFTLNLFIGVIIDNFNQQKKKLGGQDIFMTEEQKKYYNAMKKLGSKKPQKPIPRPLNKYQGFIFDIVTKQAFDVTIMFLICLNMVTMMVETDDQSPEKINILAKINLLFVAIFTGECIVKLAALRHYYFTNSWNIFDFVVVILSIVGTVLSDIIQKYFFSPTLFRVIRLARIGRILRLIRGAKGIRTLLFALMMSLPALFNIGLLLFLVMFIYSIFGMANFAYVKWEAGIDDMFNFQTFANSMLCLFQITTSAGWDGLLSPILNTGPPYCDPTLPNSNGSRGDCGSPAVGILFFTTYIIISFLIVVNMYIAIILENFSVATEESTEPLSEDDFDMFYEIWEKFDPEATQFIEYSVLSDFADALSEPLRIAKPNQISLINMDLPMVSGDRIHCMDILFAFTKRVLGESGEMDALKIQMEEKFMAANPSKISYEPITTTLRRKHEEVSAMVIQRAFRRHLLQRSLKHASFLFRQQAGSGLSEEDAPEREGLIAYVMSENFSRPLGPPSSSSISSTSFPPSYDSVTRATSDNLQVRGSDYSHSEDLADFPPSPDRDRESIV

SMILES	inhibition at 1 µM [%]	Late INa 1 μM (percent block of late INa) (compound at 1 μM) [%]
Cc1noc(Cn2nc3ccc(-c4ccc(OC(F)(F)F)cc4)cn3c2=O)n1 [compound 1, 2-((3-methyl-1,2,4-oxadiazol-5-yl)methyl)-6-(4-(trifluoromethoxy)phenyl)-[1,2,4]triazolo[4,3-a]pyridin-3(2H)-one]	27.5	–
Cc1nonc1Cn1nc2ccc(-c3ccc(OC(F)(F)F)cc3)cn2c1=O [compound 2, 2-((4-methyl-1,2,5-oxadiazol-3-yl)methyl)-6-(4-(trifluoromethoxy)phenyl)-[1,2,4]triazolo[4,3-a]pyridin-3(2H)-one]	41.3	–
Cc1nc(Cn2nc3ccc(-c4ccc(OC(F)(F)F)cc4)cn3c2=O)no1 [compound 3, 2-((5-methyl-1,2,4-oxadiazol-3-yl)methyl)-6-(4-(trifluoromethoxy)phenyl)-[1,2,4]triazolo[4,3-a]pyridin-3(2H)-one]	29.3	–
COc1ccccc1OCC(O)Cn1nc2ccc(-c3ccc(OC(F)(F)F)cc3)cn2c1=O (stereo not drawn) [compound 4, 2-(2-hydroxy-3-(2-methoxyphenoxy)propyl)-6-(4-(trifluoromethoxy)phenyl)-[1,2,4]triazolo[4,3-a]pyridin-3(2H)-one]	20.8	–
Cc1cc(Cn2nc3ccc(-c4ccc(OC(F)(F)F)cc4)cn3c2=O)no1 [compound 5, 2-((5-methylisoxazol-3-yl)methyl)-6-(4-(trifluoromethoxy)phenyl)-[1,2,4]triazolo[4,3-a]pyridin-3(2H)-one]	28.3	–
Cc1noc(C)c1Cn1nc2ccc(-c3ccc(OC(F)(F)F)cc3)cn2c1=O [compound 6, 2-((3,5-dimethylisoxazol-4-yl)methyl)-6-(4-(trifluoromethoxy)phenyl)-[1,2,4]triazolo[4,3-a]pyridin-3(2H)-one]	15.2	–
O=c1n(Cc2noc(-c3cccc(C(F)(F)F)c3)n2)nc2ccc(-c3ccc(OC(F)(F)F)cc3)cn12 [compound 7, 6-(4-(trifluoromethoxy)phenyl)-2-((5-(3-(trifluoromethyl)phenyl)-1,2,4-oxadiazol-3-yl)methyl)-[1,2,4]triazolo[4,3-a]pyridin-3(2H)-one]	24.5	–
Cc1nc(-c2cccc(Cn3nc4ccc(-c5ccc(OC(F)(F)F)cc5)cn4c3=O)c2)no1 [compound 8, 2-(3-(5-methyl-1,2,4-oxadiazol-3-yl)benzyl)-6-(4-(trifluoromethoxy)phenyl)-[1,2,4]triazolo[4,3-a]pyridin-3(2H)-one]	16.3	–
O=c1n(Cc2nc(-c3c(Cl)cccc3Cl)no2)nc2ccc(-c3ccc(OC(F)(F)F)cc3)cn12 [compound 9, 2-((3-(2,6-dichlorophenyl)-1,2,4-oxadiazol-5-yl)methyl)-6-(4-(trifluoromethoxy)phenyl)-[1,2,4]triazolo[4,3-a]pyridin-3(2H)-one]	29.8	–
O=c1n(Cc2ccc3nonc3c2)nc2ccc(-c3ccc(OC(F)(F)F)cc3)cn12 [compound 10, 2-(benzo[c][1,2,5]oxadiazol-5-ylmethyl)-6-(4-(trifluoromethoxy)phenyl)-[1,2,4]triazolo[4,3-a]pyridin-3(2H)-one]	16.9	–
COc1ccccc1-c1nc(Cn2nc3ccc(-c4ccc(OC(F)(F)F)cc4)cn3c2=O)no1 [compound 11, 2-((5-(2-methoxyphenyl)-1,2,4-oxadiazol-3-yl)methyl)-6-(4-(trifluoromethoxy)phenyl)-[1,2,4]triazolo[4,3-a]pyridin-3(2H)-one]	22	–
O=c1n(Cc2ccc(OC(F)(F)F)cc2)nc2ccc(-c3ccc(OC(F)(F)F)cc3)cn12 [compound 12, 2-(4-(trifluoromethoxy)benzyl)-6-(4-(trifluoromethoxy)phenyl)-[1,2,4]triazolo[4,3-a]pyridin-3(2H)-one]	11.1	–
O=c1n(Cc2ccc3ccccc3n2)nc2ccc(-c3ccc(OC(F)(F)F)cc3)cn12 [compound 13, 2-(quinolin-2-ylmethyl)-6-(4-(trifluoromethoxy)phenyl)-[1,2,4]triazolo[4,3-a]pyridin-3(2H)-one]	24.6	–
CCc1noc(C(C)n2nc3ccc(-c4ccc(OC(F)(F)F)cc4)cn3c2=O)n1 (stereo not drawn) [compound 14, 2-(1-(3-ethyl-1,2,4-oxadiazol-5-yl)ethyl)-6-(4-(trifluoromethoxy)phenyl)-[1,2,4]triazolo[4,3-a]pyridin-3(2H)-one]	12	–
CCc1noc(Cn2nc3ccc(-c4ccc(OC(F)(F)F)cc4)cn3c2=O)n1 [compound 15, 2-((3-ethyl-1,2,4-oxadiazol-5-yl)methyl)-6-(4-(trifluoromethoxy)phenyl)-[1,2,4]triazolo[4,3-a]pyridin-3(2H)-one]	–	13.5253
O=c1n(Cc2ccccn2)nc2ccc(-c3ccc(OC(F)(F)F)cc3)cn12 [compound 16, 2-(pyridin-2-ylmethyl)-6-(4-(trifluoromethoxy)phenyl)-[1,2,4]triazolo[4,3-a]pyridin-3(2H)-one]	11.5	–
O=c1n(Cc2nonc2-c2ccccc2)nc2ccc(-c3ccc(OC(F)(F)F)cc3)cn12 [compound 17, 2-((4-phenyl-1,2,5-oxadiazol-3-yl)methyl)-6-(4-(trifluoromethoxy)phenyl)-[1,2,4]triazolo[4,3-a]pyridin-3(2H)-one]	18.4	–
Cc1nnc(Cn2nc3ccc(-c4ccc(OC(F)(F)F)cc4)cn3c2=O)o1 [compound 18, 2-((5-methyl-1,3,4-oxadiazol-2-yl)methyl)-6-(4-(trifluoromethoxy)phenyl)-[1,2,4]triazolo[4,3-a]pyridin-3(2H)-one]	11.5	–
O=c1n(Cc2ncco2)nc2ccc(-c3ccc(OC(F)(F)F)cc3)cn12 [compound 19, 2-(oxazol-2-ylmethyl)-6-(4-(trifluoromethoxy)phenyl)-[1,2,4]triazolo[4,3-a]pyridin-3(2H)-one]	18.1	–
O=c1n(Cc2nc3ccccc3s2)nc2ccc(-c3ccc(OC(F)(F)F)cc3)cn12 [compound 20, 2-(benzo[d]thiazol-2-ylmethyl)-6-(4-(trifluoromethoxy)phenyl)-[1,2,4]triazolo[4,3-a]pyridin-3(2H)-one]	17.4	–
Cc1oc(-c2ccccc2)nc1Cn1nc2ccc(-c3ccc(OC(F)(F)F)cc3)cn2c1=O [compound 21, 2-((5-methyl-2-phenyloxazol-4-yl)methyl)-6-(4-(trifluoromethoxy)phenyl)-[1,2,4]triazolo[4,3-a]pyridin-3(2H)-one]	11	–
Cc1nc(Cn2nc3ccc(-c4ccc(OC(F)(F)F)cc4)cn3c2=O)oc1C [compound 22, 2-((4,5-dimethyloxazol-2-yl)methyl)-6-(4-(trifluoromethoxy)phenyl)-[1,2,4]triazolo[4,3-a]pyridin-3(2H)-one]	29.4	–
COc1ccccc1OCC(Cn1nc2ccc(-c3ccc(OC(F)(F)F)cc3)cn2c1=O)OC (stereo not drawn) [compound 23, 2-(2-methoxy-3-(2-methoxyphenoxy)propyl)-6-(4-(trifluoromethoxy)phenyl)-[1,2,4]triazolo[4,3-a]pyridin-3(2H)-one]	55.1	–
O=c1n(CCCOc2ccccc2)nc2ccc(-c3ccc(OC(F)(F)F)cc3)cn12 [compound 24, 2-(3-phenoxypropyl)-6-(4-(trifluoromethoxy)phenyl)-[1,2,4]triazolo[4,3-a]pyridin-3(2H)-one]	25	–
